The record followed here is PMC11833736 (ACS Pharmacology & Translational Science, 2025).

pEC50: −log10 of the molar value. Values joined by “and” are separate entries in the source; they are usually repeats but may differ in a detail not shown here. Equal entries are not always repeated. Bounds are passed on as bounds.

The test system of data set [1] is SH-SY5Y cells. Put plainly: Cytotoxicity, SRB end-point assay, dark or green light. The conditions noted are these: for pEC50: kept in the dark, SRB, normoxic (21% O2). It counts as cell-based.
In another data set the test system is U-87MG cells. Put plainly: Ru cellular uptake by ICP-MS. As to conditions: 10 μM; for Ru cellular uptake: dark. Format: in vitro ADME. The source says:
The cellular accumulation of Ru^2+ can provide additional information about how differences in anticancer efficacy may relate to the amount of the Ru prodrug in the cell before light activation. For instance, low uptake often leads to limited cytotoxicity due to limited access to the drug target. […] Similar results have been observed in A549 lung cancer cells previously.[56] […] For unknown reasons, it appears that the amine bridge in the i-diqa ligand facilitates the uptake of ruthenium compound [3](PF6)2.
Materials: 65% nitric acid (Suprapur, Merck) was used in the sample digestion process, while diluted 1% nitric acid (v/v) was employed as a carrying solution throughout the ICP measurements. For preparation of calibration and internal standards, National Institute of Standards and Technology (NIST)-traceable 1000 mg/L elemental standards were used (TraceCERT, Fluka). Approximately 18 MΩ cm^–1 water (Milli-Q) was employed in all sample preparation and analysis steps.
Instrumentation: Calibration standards were prepared in a Secuflow fume hood (SCALA) to prevent contamination by atmospheric particulates. The standard samples and measurement samples were analyzed for trace elements using the NexION 2000 (PerkinElmer) ICP-MS instrument equipped with a concentric glass nebulizer and a Peltier-cooled glass spray chamber. An SC2 DX autosampler (PerkinElmer) was connected to ICP-MS for sample introduction. Syngistix software for ICP-MS (v.2.5, PerkinElmer) was used for all data recording and processing. Five trace elemental calibration standards for ICP-MS analysis were prepared using NIST-traceable 1000 mg/L Ru standards: 0, 1, 5, 20, and 100 μg/L. Samples were analyzed without dilution in the original delivery containers to minimize the possibility of contamination. Here, 10 μg/L Rh and In were used as internal standards. To check the calibration, samples were analyzed with a blank measurement and a repeat measurement with one of the calibration standards.
Sample preparation: 1 mL of U-87MG cells were seeded in 12-well plates (Greiner, No. 665180; 400.000 cells per well). […] Afterward, the cells were trypsined, collected, and centrifuged. The resulting cell pellet was dissolved in 1 mL of PBS and counted via a BioRad TC20 automated cell counter. Afterward, the solution was centrifuged and washed again with PBS with subsequent centrifuging. This washing step was repeated twice. The resulting cell pellet was digested in 0.5 mL of 65% HNO3 overnight in a hot oven (90 °C). The solution was diluted with Milli-Q water to 10 mL, and the Ru content [ppb] was measured by ICP-MS.

The subject of data set [2] is SH-SY5Y cells. Briefly: Intracellular Ca content by ICP-MS, dark or green light. Format: cell-based. The conditions noted are these: for Ca uptake, Dark: kept in the dark. As for the experimental part: Six hours after compound addition, the cells were irradiated with green light or kept in the dark. Intracellular Ca^2+ levels were then assessed by ICP-MS 24 h after light activation. The NMDA and α-amino-3-hydroxy-5-methyl-4-isoxazole propionic acid (AMPA) receptors being glutamate-gated cation channels allow for an increase of calcium permeability of the neuron membrane; we also used L-glutamic acid (GA, 10 μM), a known NMDA and AMPA activator, as positive control in this assay.
1 mL of SH-SY5Y cells were seeded in 12-well plates (Greiner, No. 665180; 500.000 cells per well). […] After an additional 24 h of incubation, the cells were trypsined, collected, and centrifuged. The resulting cell pellet was dissolved in 1 mL of PBS and counted via a BioRad TC20 automated cell counter. Afterward, the solution was centrifuged and washed again with PBS with subsequent centrifuging two more times. The resulting cell pellet was digested in 0.5 mL of HNO3 overnight in a hot oven (90 °C). The solution was diluted with Milli-Q water to 10 mL, and the Ru and Ca content [ppb] was measured via ICP-MS.

`CSCCO.F[P-](F)(F)(F)(F)F.F[P-](F)(F)(F)(F)F.[Ru+2].c1ccc(-c2cccc(-c3ccccn3)n2)nc1.c1ccc2cc(-c3cc4ccccc4cn3)ncc2c1` [[2](PF6)2]: the “concentration required to block cell growth” value in the data set with SH-SY5Y cells [1] (in the dark) is over 40 µM. For the same molecule, the pEC50 in the data set on SH-SY5Y cells [1] is under 4.00. Moreover, the Uptake in % in the data set on U-87MG cells (6 h) was 0.8% and 0.82%; in the data set on U-87MG cells (24 h), 1.5%. For the same molecule, the Ru cellular uptake in the data set on U-87MG cells (6 h incubation) was 0.5 ng Ru/mio. cells and 0.54 ± 0.08 ng Ru/mio. cells; in the data set with U-87MG cells (24 h incubation), 0.82 ± 0.09 ng Ru/mio. cells. In addition, the “Ca uptake, Dark” value in the data set with SH-SY5Y cells [2] (20 μM) is 279.12 ± 56 ng Ca/mio. cells and 279 ng Ca/mio. cells.
`CSCCO.F[P-](F)(F)(F)(F)F.F[P-](F)(F)(F)(F)F.[Ru+2].c1ccc(-c2cccc(-c3ccccn3)n2)nc1.c1ccc2cc(Nc3cc4ccccc4cn3)ncc2c1` [[3](PF6)2] gave a pEC50 in the data set with SH-SY5Y cells [1] of 4.47. In addition, the Uptake in % with U-87MG cells (6 h) is listed as 12.4%; in the data set on U-87MG cells (24 h), about 11.5%. For the same molecule, the Ru cellular uptake in the data set on U-87MG cells (6 h incubation) is 2.1 ng Ru/mio. cells and 2.14 ± 0.49 ng Ru/mio. cells; in the data set on U-87MG cells (24 h incubation), 1.98 ng Ru/mio. cells and 1.98 ± 0.33 ng Ru/mio. cells. In the data set on SH-SY5Y cells [2] (10 μM, green light versus dark), the “increase of intracellular Ca^2+ content after light irradiation” value was 3 fold. Further, in the data set on SH-SY5Y cells [2] (10 μM), the “Ca uptake, Dark” value was 163.37 ± 93 ng Ca/mio. cells and 163 ng Ca/mio. cells.
